Test results published in patent publication US9511058B2, “Methods for using carboxamide, sulfonamide and amine compounds” (Rigel Pharmaceuticals, Inc., priority 2010, dated 2016).

Target: AMPK
Assay: AMPK activation, enzyme-linked immunosorbent assay
Assay type: biochemical
Conditions: compounds of Table 2 (Table 7)

| SMILES | EC50 [nM] |
| --- | --- |
| O=C(NC1CCN(Cc2ccc(C(F)(F)F)cc2)CC1)c1ccc2[nH]c3c(c2c1)CN(Cc1ccccc1)CC3 [2-5, 2-benzyl-N-(1-(4-trifluoromethylbenzyl)piperidin-4-yl)-2,3,4,5-tetrahydro-1H-pyrido[4,3-b]indole-8-carboxamide] | 1000 to 5000 |
| O=C(NC1CCN(Cc2ccncc2)CC1)c1ccc2[nH]c3c(c2c1)CN(Cc1ccccc1)CC3 [2-7, 2-benzyl-N-(1-(pyridin-4-ylmethyl)piperidin-4-yl)-2,3,4,5-tetrahydro-1H-pyrido[4,3-b]indole-8-carboxamide] | 5000 to 10000 |
| O=C(NC1CCN(Cc2cccnc2)CC1)c1ccc2[nH]c3c(c2c1)CN(Cc1ccc(F)cc1)CC3 [2-8, 2-(4-fluorobenzyl)-N-(1-(pyridin-3-ylmethyl)piperidin-4-yl)-2,3,4,5-tetrahydro-1H-pyrido[4,3-b]indole-8-carboxamide] | 5000 to 10000 |
| Cn1c2c(c3cc(C(=O)NC4CCN(Cc5cccnc5)CC4)ccc31)CN(Cc1ccc(C(F)(F)F)cc1)CC2 [2-18, 5-methyl-N-(1-(pyridin-3-ylmethyl)piperidin-4-yl)-2-(4-(trifluoromethyl)benzyl)-2,3,4,5-tetrahydro-1H-pyrido[4,3-b]indole-8-carboxamide] | 1000 to 5000 |
| O=C(NC1CCN(Cc2ccccc2)CC1)c1ccc2[nH]c3c(c2c1)CN(S(=O)(=O)c1ccc(C(F)(F)F)cc1)CC3 [2-19, N-(1-benzylpiperidin-4-yl)-2-(4-(trifluoromethyl)phenylsulfonyl)-2,3,4,5 - tetrahydro-1H-pyrido[4,3-b]indole-8-carboxamide] | > 100000 |
| CC(=O)n1c2c(c3cc(C(=O)NC4CCN(Cc5cccnc5)CC4)ccc31)CN(Cc1ccc(C(F)(F)F)cc1)CC2 [2-20, 5-acetyl-N-(1-(pyridin-3-ylmethyl)piperidin-4-yl)-2-(4-(trifluoromethyl)benzyl)-2,3,4,5-tetrahydro-1H-pyrido[4,3-b]indole-8-carboxamide] | 1000 to 5000 |
| N#Cc1ccc(S(=O)(=O)N2CCC(NC(=O)c3ccc4[nH]c5c(c4c3)CN(Cc3ccc(C(F)(F)F)cc3)CC5)CC2)cc1 [2-21, N-(1-(4-cyanophenyl-sulfonyl)piperidin-4-yl)-2-(4-(trifluoro-methyl)benzyl)-2,3,4,5-tetrahydro-1H-pyrido[4,3-b]indole-8-carboxamide] | 500 to 1000 |
| O=C(NC1CCN(S(=O)(=O)c2cccnc2)CC1)c1ccc2[nH]c3c(c2c1)CN(Cc1ccc(C(F)(F)F)cc1)CC3 [2-22, N-(1-(pyridin-3-ylsulfonyl)piperidin-4-yl)-2-(4-(trifluoromethyl)benzyl)-2,3,4,5-tetrahydro-1H-pyrido[4,3-b]indole-8-carboxamide] | 500 to 1000 |
| O=C(NC1CCN(S(=O)(=O)c2ccc(C(F)(F)F)cc2)CC1)c1ccc2[nH]c3c(c2c1)CN(Cc1ccc(C(F)(F)F)cc1)CC3 [2-23, 2-(4-(trifluoromethyl)benzyl)-N-(1-(4-(trifluoromethyl)phenylsulfonyl)piperidin-4-yl)-2,3,4,5-tetrahydro-1H-pyrido[4,3-b]indole-8-carboxamide] | 1000 to 5000 |
| N#Cc1ccc(CN2CCC(NC(=O)c3ccc4[nH]c5c(c4c3)CN(S(=O)(=O)c3ccc(C(F)(F)F)cc3)CC5)CC2)cc1 [2-24, N-(1-(4-cyanobenzyl)piperidin-4-yl)-2-(4-(trifluoromethyl)phenylsulfonyl)-2,3,4,5-tetrahydro-1H-pyrido [4,3-b]indole-8-carboxamide] | 1000 to 5000 |
| N#Cc1ccc(CN2CCC(NC(=O)c3ccc4[nH]c5c(c4c3)CN(S(=O)(=O)c3ccc(C#N)cc3)CC5)CC2)cc1 [2-25, N-(1-(4-cyanobenzyl)piperidin-4-yl)-2-(4-cyanophenylsulfonyl)-2,3,4,5-tetrahydro-1H-pyrido[4,3-b] indole-8-carboxamide] | 10000 to 50000 |
| N#Cc1ccc(CN2CCC(NC(=O)c3ccc4[nH]c5c(c4c3)CN(S(=O)(=O)c3cccnc3)CC5)CC2)cc1 [2-26, N-(1-(4-cyanobenzyl)piperidin-4-yl)-2-(pyridin-3-ylsulfonyl)-2,3,4,5-tetrahydro-1H-pyrido[4,3-b] indole-8-carboxamide] | 10000 to 50000 |

Further lines, results first:

| EC50 [nM] | SMILES |
| --- | --- |
| 500 to 1000 | CC(C)(C)OC(=O)N1CCC(NC(=O)c2ccc3[nH]c4c(c3c2)CN(Cc2ccc(C(F)(F)F)cc2)CC4)CC1 [2-6, tert-butyl 4-(2-(4-(trifluoromethyl)benzyl)-2,3,4,5-tetrahydro-1H-pyrido[4,3-b]indole-8-carboxamido) piperidine-1-carboxylate] |
| < 500 | N#Cc1ccc(CN2CCC(NC(=O)c3ccc4[nH]c5c(c4c3)CN(Cc3ccc(F)cc3)CC5)CC2)cc1 [2-9, N-(1-(4-cyanobenzyl)piperidin-4-yl)-2-(4-fluorobenzyl)-2,3,4,5-tetrahydro-1H-pyrido[4,3-b]indole-8-carboxamide] |
| 500 to 1000 | O=C(NC1CCN(Cc2ccc(C(F)(F)F)cc2)CC1)c1ccc2[nH]c3c(c2c1)CN(Cc1ccc(F)cc1)CC3 [2-10, N-(1-(4-trifluoro-methylbenzyl)piperidin-4-yl)-2-(4-fluorobenzyl)-2,3,4,5-tetrahydro-1H-pyrido[4,3-b] indole-8-carboxamide] |
| < 500 | O=C(NC1CCN(Cc2cccnc2)CC1)c1ccc2[nH]c3c(c2c1)CN(Cc1ccc(C(F)(F)F)cc1)CC3 [2-11, N-(1-(pyridin-3-ylmethyl)piperidin-4-yl)-2-(4-(trifluoromethyl)benzyl)-2,3,4,5-tetrahydro-1H-pyrido [4,3-b]indole-8-carboxamide] |
| < 500 | N#Cc1ccc(CN2CCC(NC(=O)c3ccc4[nH]c5c(c4c3)CN(Cc3ccc(C(F)(F)F)cc3)CC5)CC2)cc1 [2-12, N-(1-(4-cyanobenzyl)piperidin-4-yl)-2-(4-(trifluoromethyl)benzyl)-2,3,4,5-tetrahydro-1H-pyrido [4,3-b]indole-8-carboxamide] |
| < 500 | O=C(NC1CCN(Cc2ccc(C(F)(F)F)cc2)CC1)c1ccc2[nH]c3c(c2c1)CN(Cc1ccc(C(F)(F)F)cc1)CC3 [2-13, N-(1-(4-trifluoromethyl-benzyl)piperidin-4-yl)-2-(4-(trifluoro-methyl)benzyl)-2,3,4,5-tetrahydro-1H-pyrido[4,3-b]indole-8-carboxamide] |
| < 500 | O=C(NC1CCN(CCc2ccccc2)CC1)c1ccc2[nH]c3c(c2c1)CN(Cc1ccc(C(F)(F)F)cc1)CC3 [2-14, N-(1-phenethyl-piperidin-4-yl)-2-(4-(trifluoromethyl)benzyl)-2,3,4,5-tetrahydro-1H-pyrido[4,3-b]indole-8-carboxamide] |
| < 500 | O=C(NC1CCN(c2ccc(F)cc2)CC1)c1ccc2[nH]c3c(c2c1)CN(Cc1ccc(C(F)(F)F)cc1)CC3 [2-15, N-(1-(4-fluorophenyl)piperidin-4-yl)-2-(4-(trifluoromethyl)benzyl)-2,3,4,5-tetrahydro-1H-pyrido[4,3-b]indole-8-carboxamide] |
| < 500 | Cn1c2c(c3cc(C(=O)NC4CCN(Cc5ccc(C#N)cc5)CC4)ccc31)CN(Cc1ccc(C(F)(F)F)cc1)CC2 [2-16] |
| 500 to 1000 | Cn1c2c(c3cc(C(=O)NC4CCN(Cc5ccc(C(F)(F)F)cc5)CC4)ccc31)CN(Cc1ccc(C(F)(F)F)cc1)CC2 [2-17, N-(1-(4-trifluoro-methylbenzyl)piperidin-4-yl)-5-methyl-2-(4-(trifluoromethyl)benzyl)-2,3,4,5-tetrahydro-1H-pyrido[4,3-b]indole-8-carboxamide] |
